Literature values in patent publication US20070014855A1, “STABLE DESLORATADINE COMPOSITIONS” (priority 2005, published 2007).

Clc1ccc2c(c1)CCc1cccnc1C2=C1CCNCC1 [Desloratadine, 8-chloro-6,11-dihydro-11-(4-piperidylidene)-5H-benzo[5,6]-cyclohepta[1,2-b]pyridine]
solubility in ethanol (ethanol): very soluble | solubility in propylene glycol (propylene glycol): very soluble | solubility in water (water): slightly soluble
